# Tests used:
# Renal Cancer, RXF-393 = experiment: NCI in vitro anti-cancer cell line screen (SRB); conditions: Homo sapiens, RXF 393, 48 h
# Experimental: The human tumor cell lines used in the cancer screen panel were grown in RPMI 1640 medium containing 5% FBS and 2 mM L-glutamine. The cells were inoculated into 96-well microtiter plates in 100 μl at plating density ranging from 5000 to 40,000 cell/well. […] Following drug addition, the plates were incubated for an additional 48 h. The assay was terminated by the addition of cold 10% TCA. The supernatant was discarded, and the plates were washed five times with water and air dried. Sulforhodamine B (SRB) solution (100 μl) at 0.4% (w/v) in 1% acetic acid was added to each well, and plates were incubated for 10 min at room temperature. After staining, unbound dye was removed by washing five times with 1% acetic acid and the plates were air dried. Bound stain was subsequently solubilized with 10 mM trizma base, and the absorbance was read on an automated plate reader at a wavelength of 515 nm.
# A sulforhodamine B (SRB) end point was used to calculate the median growth inhibition (GI50). GI50 refers to the concentration at which the drug inhibits tumor cell growth by 50%.
# ARPE-19 cells = experiment: Immunoblots of CHOP and GRP78; format: cell-based; conditions: 1 μM + 8 μM 7KCh
# Experimental: FIGS. 16A-16E depict the secreted protein levels of (A) VEGF, (B) IL-6, and (C) IL-8 were measure by ELISA 48 hr after treatment with 6 μM 7KCh, 1 μM sterculic acid, 1 μM stearic acid, or the combinations of 7KCh with either sterculic acid or stearic acid. Error bars indicate the standard deviations. *p<0.05 comparing to 7KCh, n=3. Two-tailed Student's t-test. The expressions of GRP78 and CHOP were shown by immunoblots (D) 24 hr or (E) 48 hr after treatment with 8 μM 7KCh, 1 μM sterculic acid, 1 μM stearic acid, or the combinations of 7KCh with either sterculic acid or stearic acid.
# ARPE-19 cells were seeded in 24-well plates with 1×10^5 cells per well and allowed to recover for 16-24 hr. Once confluency reached approximately 90%, the effect of the fatty acids against 7KCh-mediated cell death was examined 24 hr after incubation in serum-free medium with 12 μM 7KCh. Fatty acids were tested at 0.1, 0.5, 1, 5 and 10 μM concentrations. The effects of the fatty acids against 7KCh-mediated inflammation and ER stress were examined by incubating cells in 1 μM fatty acids with either 8 μM 7KCh (24 hr for quantitative real-time PCR (qRT-PCR), 24 and 48 hr for immunoblot), or 6 μM 7KCh for 48 hr (for ELISA). Three individual experiments were performed for each treatment with quadruplicate measurements performed for each experiment in 24-well plates.
# Lysis of ARPE-19 cells was performed using MPER buffer solution (Thermo Fisher Scientific) containing Complete Protease Inhibitor Cocktail (Roche Diagnostics). A total of 10 μg protein samples of the cell lysate were separated by SDS-PAGE on 10% Bis-Tris gels (Invitrogen). The gels were blotted on to nitrocellulose membranes (Invitrogen). The proteins were probed with primary antibodies for CHOP (1:1000 dilution), GRP78 (1:1000), or GAPDH (1:2000) at 4° C. overnight. The membranes were then further incubated with anti-rabbit IgG, HRP-linked antibodies (1:2000 dilution) at room temperature for 1 hr. […]
smiles,measurement,setting,value
"CCCCCCCCC1=C(CCCCCCCC(=O)O)C1 [sterculic acid, 8-(2-octacyclopropen-1-yl)octanoic acid]",GI50,"Renal Cancer, RXF-393",10 µM
same,effect on 7KCh-induced CHOP and GRP78 protein expression,ARPE-19 cells; 24 hr,completely inhibited
same,inhibitory effect on CHOP and GRP78 protein expression,ARPE-19 cells; after 48 hr,seems to decrease
